In patent US12233419B2, “Devices, systems, and methods for single cell bacteria analysis” (priority 2018, dated 2025):
{TAMRA} = 6-carboxytetramethylrhodamine (NHS ester) fluorophore; {FAM} = 6-carboxyfluorescein (6-FAM) fluorophore; {IBFQ} = Iowa Black FQ dark quencher; {IBRQ} = Iowa Black RQ dark quencher

How the values were obtained:
E. coli (EC137) = test: Single cell AST in adaptable microfluidic device; assay type: cell-based; conditions: for antibiotic response in polymicrobial sample: ampicillin 8 μg/mL, mixed with S. epidermidis or EC136
From the text: (§1) Taking advantage of microfluidic confinement, single cell AST can be performed phenotypically in the presence of antibiotics in the channel. Resistant strains can grow in the presence of the antibiotic while the antibiotic would inhibit the growth of susceptible strains (FIG. 1C). As the cross-section of the channels is compatible with the size of the pathogen, the bacterial growth is confined along the microchannel. The change in length of the bacteria in the channel over time is used to quantitatively measure the growth of the bacteria.
(§2) In embodiments, bacterial trapping channels of this disclosure are also capable of single cell AST by monitoring the phenotypic growth of the trapped bacteria in the channel. In control groups without antibiotics, the bacteria grew exponentially along the microchannels (FIG. 2B, E, H). […] Growth was measured by an increase in the length of the bacteria occupying the microchannel. The length was normalized according to the initial length for estimating the growth rate, to account for variation of the initial length. Comparison of the growth rate between the control group and the antibiotic group determined the susceptibility of the bacteria. […] Unless otherwise specified, this definition is applied throughout Part I of this disclosure.
(§3) E. coli, S. epidermidis, and M. bacteremicum were cultured in Mueller Hinton broth, Nutrient broth, and ATCC medium 1395, respectively. The bacteria were cultured to an optical density at 600 nm (OD600) around 0.2 (measured with Nanodrop 2000, Thermo Scientific) and diluted to 5×10^5 cfu/mL following the CLSI guideline. […] The concentration of oxacillin for S. epidermidis was 4 μg/mL. A 20 μl sample was loaded into the inlet of the microchannel. Culture medium was applied to immerse the whole device. The device was then loaded on a microscope (Leica DMI4000B) thermal stage for real-time monitoring (SensiCam QE, PCO) of the bacterial growth. The length of the bacteria occupying the microchannel was measured in ImageJ (imagej.nih.gov/ij/). To model the polymicrobial infection with different species, E. coli (EC137) and S. epidermidis were cultured to OD600 around 0.2, mixed at ratio of 1:1, and diluted to a final concentration of 1×10^6 cfu/mL with and without ampicillin (8 μg/mL). To mimic the polymicrobial infection with different strains, E. coli (EC137 and EC136) were mixed at a ratio of 10:1 and diluted to a final concentration of 5×10^6 cfu/mL with and without ampicillin. In this embodiment, the antibiotic resistance was determined as 50% reduction in the growth rate (or two-fold difference in growth rate) in the antibiotic group based on the distribution of the growth rate of single cells. In particular, we define the threshold value based on the standard derivation of single cell growth and t-statistics (two-tailed, unpaired). In our calibration tests, the standard deviations of the growth rate were below 25% of the mean (in the worst case scenario). In the calculation, the degree of freedom was 8, since at least 5 bacteria were used in each group. A 50% reduction in growth rate is equivalent to a p-value of approximately 0.022.

[1] = test system: S. epidermidis (ATCC 12228); test: Single cell AST in adaptable microfluidic device; assay type: cell-based; conditions: for antibiotic response in polymicrobial sample: ampicillin 8 μg/mL, mixed with E. coli EC137 1:1
From the text: as §1, §2, §3

E. coli (EC136) = test: Single cell AST in adaptable microfluidic device; assay type: cell-based; conditions: ampicillin; EC137 and EC136 mixed 10:1
Description: We further evaluated the capability of the microfluidic system for identifying samples with multiple strains of the same species, which is challenging for genotypic diagnosis. Two strains of E. coli (EC137 and EC136 at a 10:1 ratio) with different antibiotic resistance profiles were tested. EC137 is susceptible to ampicillin while EC136 is resistant to ampicillin. Both strains were trapped in the microchannels at 180 kPa pressure with no spatial separation in the microchannel (FIG. 3F). […] In the antibiotic group, EC136 grew exponentially with ampicillin in the medium, whereas EC137 was lysed by ampicillin. FIG. 3J illustrates the growth curves of EC136 and EC137 in the same test.
E. coli, S. epidermidis, and M. bacteremicum were cultured in Mueller Hinton broth, Nutrient broth, and ATCC medium 1395, respectively. The bacteria were cultured to an optical density at 600 nm (OD600) around 0.2 (measured with Nanodrop 2000, Thermo Scientific) and diluted to 5×10^5 cfu/mL following the CLSI guideline. […] The concentration of oxacillin for S. epidermidis was 4 μg/mL. […] The length of the bacteria occupying the microchannel was measured in ImageJ (imagej.nih.gov/ij/). […] In this embodiment, the antibiotic resistance was determined as 50% reduction in the growth rate (or two-fold difference in growth rate) in the antibiotic group based on the distribution of the growth rate of single cells. […]

[2] = test system: M. bacteremicum (ATCC 25791); test: Single cell AST in adaptable microfluidic device; assay type: cell-based; conditions: ciprofloxacin 2 μg/mL; growth/non-growth defined by 50% reduction in growth rate
From the text: as §1, §2, §3

E. coli EC132 = test: NAME pathogen identification with microfluidic single cell AST; assay type: cell-based; conditions: growth in channels with ciprofloxacin
From the text: (§4) We integrated pathogen identification and single cell AST by applying a microfluidic confinement technique (FIG. 23A) (18, from which the description of the microfluidic device and technique is incorporated herein by reference). […] In this integrated identification and AST assay, the bacteria were transformed, loaded into the microchannels via capillary flow, and trapped in the channels for phenotypic AST. […] AST was implemented by monitoring the bacterial growth in the channels with and without the presence of antibiotics.
(§5) The bacteria suspension (1 μl) was loaded onto a microscope slide and covered with a cover glass for imaging and counting using a fluorescence microscope (Leica DMI 4000B, objective 40×). The transformation efficiency was estimated by the number of bacteria with an observable fluorescence intensity over the total number of bacteria (bright-field). To conduct AST, the transformed bacteria were loaded onto the microfluidic device by capillary force.

E. coli EC137 = test: as above; assay type: cell-based; conditions: growth in channels with ciprofloxacin
From the text: as §4, §5

EC137 = test: Testing bacteria resistance with agar pads; assay type: cell-based, E. coli; conditions: with and without ciprofloxacin
From the text: FIG. 28. Testing bacteria resistance with agar pads. (A) Schematics of the procedure for creating agar pads for single cell AST. […] Scale bars, 25 μm.

[3] = test system: bacterial 16S rRNA of E. coli; test: Intracellular 16S rRNA detection with double-stranded probes delivered by NAME; assay type: cell-based
From the text: (§6) As discussed above, the present disclosure provides a microwave electroporation approach for transforming molecular probes into viable bacteria for intracellular sensing and pathogen identification (FIG. 24). Multiwall carbon nanotubes, which couple and localize the microwave energy, can enhance the electric field in a manner similar to a lightning rod for microwave electroporation with a minimal effect on the cell viability^(14, 15). To evaluate the feasibility of multiplex single cell pathogen identification using NAME, two molecular probes targeting the species-specific regions of bacterial 16S rRNA of E. coli (EC probe) and P. aeruginosa (PA probe) were designed and transformed into the bacteria (Tables 4-5). The performance of the double-stranded nucleic acid probe was first calibrated for use in homogeneous sensing (FIG. 25). For multiplex detection, the PA probe was labeled with 6-carboxyfluorescein (6-FAM) and the EC probe was labeled with 6-carboxytetramethylrhodamine (6-TAMRA). Uropathogenic E. coli and P. aeruginosa were transformed with both probes for pathogen identification (FIG. 20D).
(§7) Four double-stranded probes were used in this disclosure (Table 4). Each probe contained two DNA strands. The donor strands were 22-24 nucleotides long and complementary to the target RNA of interest^(27, 28). The fluorophores, 6-FAM (Fluorescein) or 6-TAMRA (NHS Ester), were labeled at the 3′ end of the donor strands. The quencher strands were 11-12 nucleotides in length. The dark quenchers, Iowa Black FQ for 6-FAM or Iowa Black RQ for 6-TAMRA, were labeled at the 5′ end of the quencher strands immediately adjacent to the fluorophores on the donor strands. The probes were synthesized by Integrated DNA Technologies (Coralville, IA). Other reagents were purchased from Sigma Inc. (St. Louis, MO) unless otherwise specified. To conduct the assay, the probes were made by mixing the fluorophore and quencher strands in the buffer solution, which contains 10 mM Tris-EDTA with 100 mM NaCl at a 1:3 molar ratio, at 95° C. for 5 minutes. The mixtures were then allowed to cool down to room temperature slowly. The final concentration of the probes in the transformation test was 1.5×10^3 nM.
(§8) Bacteria were grown in Mueller Hinton Broth. To transform the double-stranded probe into bacteria, 100 μl of bacterial sample was centrifuged at 4500 rpm for 5 minutes and washed twice with phosphate buffer (PBS 1×). The multiwall carbon nanotubes that are functionalized with a carboxyl group (COOH) have a diameter of 30±15 nm and a length from 1 to 5 μm (NanoLab, Inc.). The nanotube solution (30 mg/ml) was filtered with a 1 μm microfilter. The pellet was resuspended into 100 μl filtered nanotube solution and incubated for 10 minutes at room temperature. Then, 10 μl molecular probe was added and incubated at room temperature for 10 minutes. The sample was incubated in ice for 5 minutes and then put into a microwave oven (700 W, 2.45 GHz) for 10 seconds. The microwave treated bacteria was incubated at room temperature for 30 minutes and washed 3 times with PBS (1×) to remove the extra probes and resuspended in PBS for imaging.

[4] = test system: bacterial 16S rRNA of P. aeruginosa; test: as above; assay type: cell-based
From the text: as §6, §7, §8

CC1(C)S[C@@H]2[C@H](NC(=O)[C@H](N)c3ccccc3)C(=O)N2[C@H]1C(=O)O [ampicillin]
antibiotic response in polymicrobial sample (E. coli (EC137)): susceptible
antibiotic response in polymicrobial sample (E. coli (EC137); listed as Ampicillin): bactericidal effect
antibiotic response in polymicrobial sample [1]: resistant
antibiotic response in polymicrobial sample ([1]; listed as Ampicillin): no effect
antibiotic response in polymicrobial sample (E. coli (EC136)): resistant

O=C(O)c1cn(C2CC2)c2cc(N3CCNCC3)c(F)cc2c1=O [ciprofloxacin]
antimicrobial susceptibility (growth in microchannel) (E. coli (EC137); ciprofloxacin 4 μg/mL, growth/non-growth defined by 50% reduction in growth rate): effective
antimicrobial susceptibility (growth in microchannel) [2]: effective
antimicrobial susceptibility after NAME (E. coli EC132): resistant
antimicrobial susceptibility after NAME (E. coli EC137): susceptible
growth in agar pads (EC137): inhibited the growth

Cc1onc(-c2ccccc2)c1C(=O)N[C@@H]1C(=O)N2[C@@H]1SC(C)(C)[C@@H]2C(=O)O [oxacillin]
antimicrobial susceptibility (growth in microchannel) ([1]; oxacillin 4 μg/mL, growth/non-growth defined by 50% reduction in growth rate): completely inhibited the growth

EC probe (Red): double-stranded DNA probe for E. coli 16S rRNA; donor SEQ ID 3 with 3′ 6-TAMRA, quencher SEQ ID 4 with 5′ Iowa Black RQ (sense GGTATTAACTTTACTCCCTTCCTC; antisense GAGGAAGGGAGT; sense: 3' {TAMRA}, sugars by position and backbone not given here; antisense: 5' {IBRQ}, sugars by position and backbone not given here)
single cell pathogen identification of clinical isolates ([3]; isolates from clinical blood and urine samples): specifically identified
fluorescence signal from the probe in the bacteria ([3]; samples with E. coli only, both probes transformed): clearly observed
fluorescence signal from the probe in the bacteria (non-target probe) ([4]; P. aeruginosa samples, EC probe): not

PA probe: double-stranded DNA probe for P. aeruginosa 16S rRNA; donor SEQ ID 6 with 3′ 6-FAM, quencher SEQ ID 7 (sense GCTGAACCACCTACGCGCGCTTT; antisense AAAGCGCGCGTA; sense: 3' {FAM}, sugars by position and backbone not given here; antisense: 5' {IBFQ}, sugars by position and backbone not given here)
fluorescence signal from the probe in the bacteria (non-target probe) ([3]; samples with E. coli only, PA probe): not observable
fluorescence signal from the probe in the bacteria ([4]; P. aeruginosa samples, both probes transformed): high fluorescence signal
single cell pathogen identification of clinical isolates ([4]; isolates from clinical urine samples): specifically identified
